Reference: PubChem BioAssay (NCI)
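Cultured in 96-well plates, cells were exposed to test compound for 48 hours across five concentrations. GI50 is the concentration that inhibits growth by half. At the TGI there is no net growth.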

Columns and labels:
Assay in all cases: DTP human tumour cell line panel, 48 h
T-47D breast = system: T-47D breast
SNB-19 CNS = system: SNB-19 CNS
MOLT-4 leukemia = system: MOLT-4 leukemia
RPMI-8226 leukemia = system: RPMI-8226 leukemia
U251 CNS = system: U251 CNS
HS 578T breast = system: HS 578T breast
MDA-MB-468 breast = system: MDA-MB-468 breast
LOX IMVI melanoma = system: LOX IMVI melanoma
UO-31 renal = system: UO-31 renal
MALME-3M melanoma = system: MALME-3M melanoma
A498 renal = system: A498 renal
K-562 leukemia = system: K-562 leukemia
EKVX NSCLC = system: EKVX NSCLC
HCC-2998 colon = system: HCC-2998 colon
SF-268 CNS = system: SF-268 CNS
PC-3 prostate = system: PC-3 prostate
SF-539 CNS = system: SF-539 CNS
SK-MEL-28 melanoma = system: SK-MEL-28 melanoma
SNB-75 CNS = system: SNB-75 CNS
OVCAR-8 ovarian = system: OVCAR-8 ovarian
NCI-H460 lung = system: NCI-H460 lung
OVCAR-5 ovarian = system: OVCAR-5 ovarian
SN12C renal = system: SN12C renal
ACHN renal = system: ACHN renal
MCF7 breast = system: MCF7 breast
MDA-MB-231 breast = system: MDA-MB-231 breast
COLO 205 colon = system: COLO 205 colon
SR leukemia = system: SR leukemia
UACC-257 melanoma = system: UACC-257 melanoma
OVCAR-3 ovarian = system: OVCAR-3 ovarian
BT-549 breast = system: BT-549 breast
HCT-15 colon = system: HCT-15 colon
SW-620 colon = system: SW-620 colon
SK-MEL-5 melanoma = system: SK-MEL-5 melanoma
NCI-H522 lung = system: NCI-H522 lung
SF-295 CNS = system: SF-295 CNS
NCI-H23 lung = system: NCI-H23 lung
HOP-62 NSCLC = system: HOP-62 NSCLC
IGROV1 ovarian = system: IGROV1 ovarian
DU-145 prostate = system: DU-145 prostate
SK-OV-3 ovarian = system: SK-OV-3 ovarian
HOP-92 NSCLC = system: HOP-92 NSCLC
HT29 colon = system: HT29 colon
NCI-H226 lung = system: NCI-H226 lung
HCT-116 colon = system: HCT-116 colon
HL-60(TB) leukemia = system: HL-60(TB) leukemia
UACC-62 melanoma = system: UACC-62 melanoma
MDA-MB-435 = system: MDA-MB-435
CCRF-CEM leukemia = system: CCRF-CEM leukemia
M14 melanoma = system: M14 melanoma
CAKI-1 renal = system: CAKI-1 renal
TK-10 renal = system: TK-10 renal
OVCAR-4 ovarian = system: OVCAR-4 ovarian
RXF 393 renal = system: RXF 393 renal
786-0 renal = system: 786-0 renal
A549 NSCLC = system: A549 NSCLC
KM12 colon = system: KM12 colon
SK-MEL-2 melanoma = system: SK-MEL-2 melanoma

O=C1Nc2cc(Cl)ccc2/C1=C/c1cccc(OCc2ccccn2)c1 was tested, and the GI50 (T-47D breast) was 3.01 µM, the TGI (T-47D breast) was 22.6 µM and the GI50 (SNB-19 CNS) was 11 µM. It also gave a TGI (SNB-19 CNS) of 27.8 µM, a GI50 (MOLT-4 leukemia) of 3.02 µM and a TGI (MOLT-4 leukemia) of 11.3 µM. The GI50 (RPMI-8226 leukemia) was 2.93 µM, the TGI (RPMI-8226 leukemia) was 40.3 µM and the GI50 (U251 CNS) was 4.21 µM. For the same compound, the TGI (U251 CNS) was 15.4 µM, the GI50 (HS 578T breast) was 2.01 µM and the TGI (HS 578T breast) was 6.72 µM. For the same compound, the GI50 (MDA-MB-468 breast) was 2.54 µM, the TGI (MDA-MB-468 breast) was 9.08 µM and the GI50 (LOX IMVI melanoma) was 2.06 µM. For the same compound, the TGI (LOX IMVI melanoma) was 4.92 µM, the GI50 (UO-31 renal) was 3.03 µM and the TGI (UO-31 renal) was 25 µM. It also gave a GI50 (MALME-3M melanoma) of 4.23 µM, a TGI (MALME-3M melanoma) of 46.6 µM and a GI50 (A498 renal) of 22.1 µM. For the same compound, the TGI (A498 renal) was 76.9 µM, the GI50 (K-562 leukemia) was 2.82 µM and the TGI (K-562 leukemia) was > 100 µM. It also gave a GI50 (EKVX NSCLC) of 5.41 µM, a TGI (EKVX NSCLC) of 67.4 µM and a GI50 (HCC-2998 colon) of 11.4 µM. The TGI (HCC-2998 colon) was 26.2 µM, the GI50 (SF-268 CNS) was 4.82 µM and the TGI (SF-268 CNS) was > 100 µM. For the same compound, the GI50 (PC-3 prostate) was 5.52 µM, the TGI (PC-3 prostate) was > 100 µM and the GI50 (SF-539 CNS) was 2.63 µM. It also gave a TGI (SF-539 CNS) of 8.05 µM, a GI50 (SK-MEL-28 melanoma) of 5.66 µM and a TGI (SK-MEL-28 melanoma) of 32.3 µM. The GI50 (SNB-75 CNS) was 3.05 µM, the TGI (SNB-75 CNS) was 38.8 µM and the GI50 (OVCAR-8 ovarian) was 3.79 µM. The TGI (OVCAR-8 ovarian) was 16.3 µM, the GI50 (NCI-H460 lung) was 3.15 µM and the TGI (NCI-H460 lung) was 12.3 µM. It also gave a GI50 (OVCAR-5 ovarian) of 7.62 µM, a TGI (OVCAR-5 ovarian) of 26.8 µM and a GI50 (SN12C renal) of 6.38 µM. The TGI (SN12C renal) was 26.1 µM, the GI50 (ACHN renal) was 6.07 µM and the TGI (ACHN renal) was 19.9 µM. For the same compound, the GI50 (MCF7 breast) was 1.93 µM, the TGI (MCF7 breast) was 11.4 µM and the GI50 (MDA-MB-231 breast) was 2.46 µM. It also gave a TGI (MDA-MB-231 breast) of 9.13 µM, a GI50 (COLO 205 colon) of 10.5 µM and a TGI (COLO 205 colon) of 22.2 µM. The GI50 (SR leukemia) was 2.58 µM, the TGI (SR leukemia) was 10.3 µM and the GI50 (UACC-257 melanoma) was 7.63 µM. The TGI (UACC-257 melanoma) was > 100 µM, the GI50 (OVCAR-3 ovarian) was 3.33 µM and the TGI (OVCAR-3 ovarian) was 16.2 µM. It also gave a GI50 (BT-549 breast) of 3.92 µM, a TGI (BT-549 breast) of 16.5 µM and a GI50 (HCT-15 colon) of 2.71 µM. The TGI (HCT-15 colon) was 16.1 µM, the GI50 (SW-620 colon) was 3.1 µM and the TGI (SW-620 colon) was 14.3 µM. For the same compound, the GI50 (SK-MEL-5 melanoma) was 2.81 µM, the TGI (SK-MEL-5 melanoma) was 13.4 µM and the GI50 (NCI-H522 lung) was 2.43 µM. For the same compound, the TGI (NCI-H522 lung) was 6.63 µM, the GI50 (SF-295 CNS) was 5.69 µM and the TGI (SF-295 CNS) was 25 µM. For the same compound, the GI50 (NCI-H23 lung) was 3.39 µM, the TGI (NCI-H23 lung) was 16 µM and the GI50 (HOP-62 NSCLC) was 6.95 µM. For the same compound, the TGI (HOP-62 NSCLC) was 25 µM, the GI50 (IGROV1 ovarian) was 3.89 µM and the TGI (IGROV1 ovarian) was 22.9 µM. For the same compound, the GI50 (DU-145 prostate) was 10.7 µM, the TGI (DU-145 prostate) was > 100 µM and the GI50 (SK-OV-3 ovarian) was 10.3 µM. For the same compound, the TGI (SK-OV-3 ovarian) was 26.8 µM, the GI50 (HOP-92 NSCLC) was 1.85 µM and the TGI (HOP-92 NSCLC) was 8.15 µM. For the same compound, the GI50 (HT29 colon) was 4.47 µM, the TGI (HT29 colon) was 19.4 µM and the GI50 (NCI-H226 lung) was 11.3 µM. For the same compound, the TGI (NCI-H226 lung) was 70.4 µM, the GI50 (HCT-116 colon) was 3.07 µM and the TGI (HCT-116 colon) was 10.5 µM. It also gave a GI50 (HL-60(TB) leukemia) of 2.13 µM, a TGI (HL-60(TB) leukemia) of 5.1 µM and a GI50 (UACC-62 melanoma) of 2.7 µM. It also gave a TGI (UACC-62 melanoma) of 13.9 µM, a GI50 (MDA-MB-435) of 1.92 µM and a TGI (MDA-MB-435) of 4.25 µM. For the same compound, the GI50 (CCRF-CEM leukemia) was 3.1 µM, the TGI (CCRF-CEM leukemia) was > 100 µM and the GI50 (M14 melanoma) was 4.43 µM. The TGI (M14 melanoma) was 16.8 µM, the GI50 (CAKI-1 renal) was 2.73 µM and the TGI (CAKI-1 renal) was 14.1 µM. The GI50 (TK-10 renal) was 15.4 µM, the TGI (TK-10 renal) was 34.7 µM and the GI50 (OVCAR-4 ovarian) was 5.73 µM. The TGI (OVCAR-4 ovarian) was 35.5 µM, the GI50 (RXF 393 renal) was 3.08 µM and the TGI (RXF 393 renal) was 14.5 µM. The GI50 (786-0 renal) was 14 µM, the TGI (786-0 renal) was 28.9 µM and the GI50 (A549 NSCLC) was 13 µM. It also gave a TGI (A549 NSCLC) of 62.2 µM, a GI50 (KM12 colon) of 3.77 µM and a TGI (KM12 colon) of 87.4 µM. For the same compound, the GI50 (SK-MEL-2 melanoma) was 2.9 µM and the TGI (SK-MEL-2 melanoma) was 9.3 µM.
